Drawing on patent US20040102362A1, “Protocol for paracentesis” (priority 2000, published 2004), this text covers Creatininaemia and Natraemia for 1 molecule.

SMILES strings stand for the structures. Positions of bridges follow the written chain, without caps; N, C: chain ends. Residues, ends and D or L forms follow the SMILES beside them.

The data set concerns cirrhotic patients with tense ascites. As to conditions: human, in vivo.

Method: Patient selection criteria: 24 clinically stable cirrhotic patients with tense ascites in need of therapeutic paracentesis were recruited to the study.
Treatment: Both groups received therapeutic paracentesis according to the usual protocol of the study centre. […] Plasma renin and aldosterone levels were measured as markers of blood volume. Certain other parameters were determined as secondary criteria for successful treatment.

The molecule `NCCCC[C@H](NC(=O)[C@@H]1CCCN1C(=O)[C@@H]1CSSC[C@H](NC(=O)CNC(=O)CNC(=O)CN)C(=O)N[C@@H](Cc2ccc(O)cc2)C(=O)N[C@@H](Cc2ccccc2)C(=O)N[C@@H](CCC(N)=O)C(=O)N[C@@H](CC(N)=O)C(=O)N1)C(=O)NCC(N)=O` [Terlipressin] (H-GGGCYFQNCPKG-NH2; disulfide 4-9) returned a Creatininaemia of 72 ± 8 and a Natraemia of 133 ± 1 mmol/L.
